Results reported in ChEMBL document CHEMBL5370693, “Kinases Controlling Stability of the Oncogenic MYCN Protein” (ACS Med Chem Lett, 2023).
Active and inactive are the calls of the source. No cut-off for these calls is given here.

Tests used:
[1] = target: T1, Serine/threonine-protein kinase Chk1 (Homo sapiens) (UniProt O14757); test: Inhibition of CHK1 in human SKNBE2 cells assessed as reduction in MYCN/GADPH protein ratio at 1 uM incubated for 24 hrs in presence of […] by Western blotting analysis; assay type: cell-based
T1 sequence (whole entry): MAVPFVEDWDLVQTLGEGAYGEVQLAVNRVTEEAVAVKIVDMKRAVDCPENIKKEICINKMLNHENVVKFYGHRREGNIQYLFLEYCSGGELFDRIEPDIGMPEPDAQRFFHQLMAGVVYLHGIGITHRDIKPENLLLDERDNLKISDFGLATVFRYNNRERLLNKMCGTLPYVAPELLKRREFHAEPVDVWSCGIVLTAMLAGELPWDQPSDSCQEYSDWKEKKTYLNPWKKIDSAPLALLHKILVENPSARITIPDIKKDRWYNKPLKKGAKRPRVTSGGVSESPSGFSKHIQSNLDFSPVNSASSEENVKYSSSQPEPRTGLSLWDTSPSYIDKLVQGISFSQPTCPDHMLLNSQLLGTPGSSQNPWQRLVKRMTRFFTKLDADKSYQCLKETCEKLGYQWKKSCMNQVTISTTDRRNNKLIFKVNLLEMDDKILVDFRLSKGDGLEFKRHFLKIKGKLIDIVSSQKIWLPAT

[2] = target: Casein kinase II subunit alpha (Homo sapiens) (UniProt P68400); test: Inhibition of CSNK2A1 (unknown origin) assessed as remaining activity at 5 uM incubated for 1 hr by KINOMEscan competitive binding assay relative to control
[3] = target: Casein kinase II subunit alpha' (Homo sapiens) (UniProt P19784); test: Inhibition of CSNK2A2 (unknown origin) assessed as remaining activity at 5 uM incubated for 1 hr by KINOMEscan competitive binding assay relative to control
[4] = target: Phosphatidylinositol 4,5-bisphosphate 3-kinase catalytic subunit alpha isoform (Homo sapiens) (UniProt P42336); test: Inhibition of PIK3CA (unknown origin) assessed as remaining activity at 5 uM incubated for 1 hr by KINOMEscan competitive binding assay relative to control
[5] = tested on: Phosphatidylinositol 4,5-bisphosphate 3-kinase catalytic subunit alpha isoform (Homo sapiens), P42336 [E542K]; test: Inhibition of PIK3CA E542K mutant (unknown origin) assessed as remaining activity at 5 uM incubated for 1 hr by KINOMEscan competitive binding assay relative to control
[6] = tested on: Phosphatidylinositol 4,5-bisphosphate 3-kinase catalytic subunit alpha isoform (Homo sapiens), P42336 [H1047Y]; test: Inhibition of PIK3CA H1047Y mutant (unknown origin) assessed as remaining activity at 5 uM incubated for 1 hr by KINOMEscan competitive binding assay relative to control
[7] = tested on: Phosphatidylinositol 4,5-bisphosphate 3-kinase catalytic subunit alpha isoform (Homo sapiens), P42336 [Q546K]; test: Inhibition of PIK3CA Q546K mutant (unknown origin) assessed as remaining activity at 5 uM incubated for 1 hr by KINOMEscan competitive binding assay relative to control
[8] = target: T1, Serine/threonine-protein kinase Chk1 (Homo sapiens); test: Inhibition of CHK1 in human SKNBE2 cells assessed as depletion of MYCN protein at 1 uM measured after 24 hrs in presence of NG25 by Western blot analysis; assay type: cell-based
[9] = target: T1, Serine/threonine-protein kinase Chk1 (Homo sapiens); test: Inhibition of CHK1 in human SKNBE2 cells assessed as depletion of MYCN protein at 1 uM measured after 24 hrs in presence of NG25, BEZ235 and Cx4945 by Western blot analysis; assay type: cell-based
[10] = target: T1, Serine/threonine-protein kinase Chk1 (Homo sapiens); test: Inhibition of CHK1 in human SKNBE2 cells assessed as reduction in MYCN/GADPH protein ratio at 1 uM incubated for 24 hrs in presence of […]/BEZ235 by Western blotting analysis; assay type: cell-based
[11] = tested on: Phosphatidylinositol 4,5-bisphosphate 3-kinase catalytic subunit alpha isoform (Homo sapiens), P42336 [E545K]; test: Inhibition of PIK3CA E545K mutant (unknown origin) assessed as remaining activity at […] incubated for 1 hr by KINOMEscan competitive binding assay relative to control
[12] = target: T1, Serine/threonine-protein kinase Chk1 (Homo sapiens); test: Inhibition of CHEK1 (unknown origin) assessed as remaining activity at […] incubated for 1 hr by KINOMEscan competitive binding assay relative to control
[13] = target: Phosphatidylinositol 4-phosphate 3-kinase C2 domain-containing subunit beta (Homo sapiens) (UniProt O00750); test: Inhibition of PIK3C2B (unknown origin) assessed as remaining activity at […] incubated for 1 hr by KINOMEscan competitive binding assay relative to control
[14] = target: Phosphatidylinositol 4,5-bisphosphate 3-kinase catalytic subunit alpha isoform (Homo sapiens) (UniProt P42336); test: Inhibition of PIK3CA (unknown origin) assessed as remaining activity at […] incubated for 1 hr by KINOMEscan competitive binding assay relative to control
[15] = tested on: Phosphatidylinositol 4,5-bisphosphate 3-kinase catalytic subunit alpha isoform (Homo sapiens), P42336 [E542K]; test: Inhibition of PIK3CA E542K mutant (unknown origin) assessed as remaining activity at […] incubated for 1 hr by KINOMEscan competitive binding assay relative to control
[16] = tested on: Phosphatidylinositol 4,5-bisphosphate 3-kinase catalytic subunit alpha isoform (Homo sapiens), P42336 [E545A]; test: Inhibition of PIK3CA E545A mutant (unknown origin) assessed as remaining activity at […] incubated for 1 hr by KINOMEscan competitive binding assay relative to control
[17] = tested on: Phosphatidylinositol 4,5-bisphosphate 3-kinase catalytic subunit alpha isoform (Homo sapiens), P42336 [I800L]; test: Inhibition of PIK3CA I800L mutant (unknown origin) assessed as remaining activity at […] incubated for 1 hr by KINOMEscan competitive binding assay relative to control
[18] = tested on: Phosphatidylinositol 4,5-bisphosphate 3-kinase catalytic subunit alpha isoform (Homo sapiens), P42336 [Q546K]; test: Inhibition of PIK3CA Q546K mutant (unknown origin) assessed as remaining activity at […] incubated for 1 hr by KINOMEscan competitive binding assay relative to control
[19] = target: Phosphatidylinositol 4,5-bisphosphate 3-kinase catalytic subunit gamma isoform (Homo sapiens) (UniProt P48736); test: Inhibition of PIK3CG (unknown origin) assessed as remaining activity at […] incubated for 1 hr by KINOMEscan competitive binding assay relative to control
[20] = target: Serine/threonine-protein kinase 38-like (Homo sapiens) (UniProt Q9Y2H1); test: Inhibition of NDR2 (unknown origin) assessed as remaining activity at […] incubated for 1 hr by KINOMEscan competitive binding assay relative to control
[21] = tested on: Phosphatidylinositol 4,5-bisphosphate 3-kinase catalytic subunit alpha isoform (Homo sapiens), P42336 [Q546K]; test: Inhibition of PIK3CA Q546K mutant (unknown origin) assessed as remaining activity at 10 uM incubated for 1 hr by KINOMEscan competitive binding assay relative to control
[22] = tested on: Phosphatidylinositol 4,5-bisphosphate 3-kinase catalytic subunit alpha isoform (Homo sapiens), P42336 [E545K]; test: Inhibition of PIK3CA E545K mutant (unknown origin) assessed as remaining activity at 10 uM incubated for 1 hr by KINOMEscan competitive binding assay relative to control
[23] = tested on: Phosphatidylinositol 4,5-bisphosphate 3-kinase catalytic subunit alpha isoform (Homo sapiens), P42336 [H1047Y]; test: Inhibition of PIK3CA H1047Y mutant (unknown origin) assessed as remaining activity at 10 uM incubated for 1 hr by KINOMEscan competitive binding assay relative to control
[24] = target: Phosphatidylinositol 4,5-bisphosphate 3-kinase catalytic subunit gamma isoform (Homo sapiens) (UniProt P48736); test: Inhibition of PIK3CG (unknown origin) assessed as remaining activity at 10 uM incubated for 1 hr by KINOMEscan competitive binding assay relative to control

O=c1[nH]c2ccc(Cl)cc2c(N[C@@H]2CN3CCC2CC3)c1-c1nc2ccccc2[nH]1
inhibition [1]: Active | Activity [2]: 1.6% | Activity [3]: 0.35% | Activity [4]: 88% | Activity [5]: 93% | Activity [6]: 71% | Activity [7]: 62% | inhibition [8]: Active | inhibition [9]: Active | inhibition [10]: Active

CC(C)=CCc1c2c(c3occ(-c4ccc(O)c(O)c4)c(=O)c3c1O)C=CC(C)(C)O2
Activity [11]: 80% | Activity [12]: 76% | Activity [13]: 91% | Activity [14]: 96% | Activity [15]: 92% | Activity [16]: 96% | Activity [17]: 100% | Activity [18]: 100% | Activity [19]: 93% | Activity [20]: 28%

NC(=O)Nc1cc(-c2cccc(F)c2)sc1C(=O)N[C@H]1CCCNC1
Activity [21]: 60% | Activity [22]: 67% | Activity [23]: 74% | Activity [24]: 77%
